In patent US11242334B2, “Heterocyclic compounds as kinase inhibitors, compositions comprising the heterocyclic compound, and methods of use thereof” (JS INNOPHARM (SHANGHAI) LTD, priority 2017, dated 2022):

Experiments:
[1] = test system: Colo205 cell line; experiment: Colo205 cell proliferation assay (MTT assay, WST-8 readout); format: cell-based; settings: Homo sapiens; IC50 values of growth inhibition in Colo 205 cells; 72 hours
Outline: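 Growth-inhibition IC50 was derived from WST-8 absorbance at 450 nm (2 h development) after 72 h compound exposure at 37° C. Exposure used final 50 μM–0.005 μM compound in 0.5% DMSO. Colo205 cells had been plated at 5,000/well in RPMI-1640 plus 10% FBS and allowed 24 h to attach.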

[2] = biological target: T1, human ERK2 (Homo sapiens, UniProt P28482); experiment: LanthaScreen TR-FRET enzymatic assay, ERK2; settings: IC50 values of ERK2 biochemical activity; 5 μM ATP, 400 nM ATF2-GFP substrate
T1 construct: recombinantly expressed as GST-tagged full-length protein purified from E. coli; GST; purchased Invitrogen PV3311; host or cells: E. coli
Outline: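 IC50 values were fitted from percent of DMSO control using a 520/495 nm TR-FRET ratio with terbium anti-pATF2 (pThr71), read after an EDTA stop. The kinase reaction lasted one hour at room temperature, following 15-min compound pre-treatment. It contained 5 μM ATP, 400 nM ATF2-GFP substrate and 20 ng/ml in vitro-activated GST-ERK2.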

T1 sequence (P28482 whole entry): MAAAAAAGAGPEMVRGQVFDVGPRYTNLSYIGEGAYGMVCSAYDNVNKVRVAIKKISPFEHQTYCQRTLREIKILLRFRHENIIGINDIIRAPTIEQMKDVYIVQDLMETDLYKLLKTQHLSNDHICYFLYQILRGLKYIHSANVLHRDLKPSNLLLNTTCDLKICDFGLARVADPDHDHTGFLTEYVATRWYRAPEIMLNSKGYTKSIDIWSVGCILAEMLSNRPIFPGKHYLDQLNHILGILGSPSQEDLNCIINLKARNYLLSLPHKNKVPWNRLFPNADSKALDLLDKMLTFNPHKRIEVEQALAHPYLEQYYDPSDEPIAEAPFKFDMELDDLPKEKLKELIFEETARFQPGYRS

Compound	IC50 [1]	IC50 [2]
Cn1cc(-c2n[nH]c3ccc(-c4ccn(Cc5ccnc(C(F)(F)F)c5)c(=O)c4)cc23)cn1 [Example 95, 4-(3-(1-methyl-1H-pyrazol-4-yl)-1H-indazol-5-yl)-1-((2-(trifluoromethyl)pyridin-4-yl)methyl)pyridin-2(1H)-one]	1000 to 5000 nM	< 10 nM
CC(c1cc(F)cc(Br)c1)n1ccc(-c2ccc3[nH]nc(-c4cnn(C)c4)c3c2)cc1=O (stereo not drawn) [Example 96, 1-(1-(3-bromo-5-fluorophenyl)ethyl)-4-(3-(1-methyl-1H-pyrazol-4-yl)-1H-indazol-5-yl)pyridin-2(1H)-one]	500 to 1000 nM	< 10 nM
CC(c1ccc(F)c(Cl)c1)n1ccc(-c2ccc3[nH]nc(-c4cnn(C)c4)c3c2)cc1=O (stereo not drawn) [Example 97, 1-(1-(3-chloro-4-fluorophenyl)ethyl)-4-(3-(1-methyl-1H-pyrazol-4-yl)-1H-indazol-5-yl)pyridin-2(1H)-one]	1000 to 5000 nM	10 to 50 nM
CNCC(c1cccc(Cl)c1)n1ccc(-c2ccc3[nH]nc(-c4cnn(C)c4)c3c2)cc1=O (stereo not drawn) [Example 98, 1-(1-(3-chlorophenyl)-2-(methylamino)ethyl)-4-(3-(1-methyl-1H-pyrazol-4-yl)-1H-indazol-5-yl)pyridin-2(1H)-one]	≤ 500 nM	< 10 nM
CC(C)Oc1ccc(-c2n[nH]c3ccc(-c4ccn(Cc5cc(F)cc(Br)c5)c(=O)c4)cc23)cn1 [Example 99, 1-(3-bromo-5-fluorobenzyl)-4-(3-(6-isopropoxypyridin-3-yl)-1H-indazol-5-yl)pyridin-2(1H)-one]	1000 to 5000 nM	< 10 nM
CC(C)Oc1ccc(-c2n[nH]c3ccc(-c4ccn([C@H](CO)c5ccc(Cl)c(F)c5)c(=O)c4)cc23)cn1 [Example 100]	1000 to 5000 nM	10 to 50 nM
Cc1cc(-c2n[nH]c3ncc(-c4ccn([C@H](CO)c5ccc(F)c(Cl)c5)c(=O)c4)cc23)ccn1 [Example 101, (S)-1-(1-(3-chloro-4-fluorophenyl)-2-hydroxyethyl)-4-(3-(2-methylpyridin-4-yl)-1H-pyrazolo[3,4-b]pyridin-5-yl)pyridin-2(1H)-one]	≤ 500 nM	< 10 nM
CCOc1ccc(-c2n[nH]c3ccc(-c4ccn([C@H](CO)c5cc(F)cc(Br)c5)c(=O)c4)cc23)cn1 [Example 102, (S)-1-(1-(3-bromo-5-fluorophenyl)-2-hydroxyethyl)-4-(3-(6-ethoxypyridin-3-yl)-1H-indazol-5-yl)pyridin-2(1H)-one]	≤ 500 nM	< 10 nM
COc1ccc(-c2n[nH]c3ccc(-c4ccn([C@H](CO)c5cc(F)cc(Br)c5)c(=O)c4)cc23)cn1 [Example 103, (S)-1-(1-(3-bromo-5-fluorophenyl)-2-hydroxyethyl)-4-(3-(6-methoxypyridin-3-yl)-1H-indazol-5-yl)pyridin-2(1H)-one]	≤ 500 nM	< 10 nM
Cc1cc(-c2n[nH]c3ncc(-c4ccn(Cc5ccnc(C(F)(F)F)c5)c(=O)c4)cc23)ccn1 [Example 104, 4-(3-(2-methylpyridin-4-yl)-1H-pyrazolo[3,4-b]pyridin-5-yl)-1-((2-(trifluoromethyl)pyridin-4-yl)methyl)pyridin-2(1H)-one]	500 to 1000 nM	10 to 50 nM
Cc1cc(-c2n[nH]c3ncc(-c4ccn(C(C)c5cc(F)cc(Br)c5)c(=O)c4)cc23)ccn1 (stereo not drawn) [Example 105, 1-(1-(3-bromo-5-fluorophenyl)ethyl)-4-(3-(2-methylpyridin-4-yl)-1H-pyrazolo[3,4-b]pyridin-5-yl)pyridin-2(1H)-one]	500 to 1000 nM	< 10 nM
Cn1cc(-c2n[nH]c3ncc(-c4ccn([C@H](CO)c5cc(F)cc(Br)c5)c(=O)c4)cc23)cn1 [Example 106, (S)-1-(1-(3-bromo-5-fluorophenyl)-2-hydroxyethyl)-4-(3-(1-methyl-1H-pyrazol-4-yl)-1H-pyrazolo[3,4-b]pyridin-5-yl)pyridin-2(1H)-one]	500 to 1000 nM	< 10 nM
